Reference: US11981630B1, “Abietane type diterpene compound, preparation method and application thereof” (Hangzhou Normal University, priority 2022, dated 2024)
Where “and” joins values, the source holds several entries; their conditions need not be identical. Equal values may be shown once. Read-outs that look alike come from different tables or passages of the source.

Legend:
[1] = tested on: human promyelocytic leukemia cell HL-60; assay: in vitro tumor cell proliferation inhibition assay (MTT), HL-60; type: cell-based; conditions: for absorbance at 570 nm, Average: average of 3 wells; for absorbance at 570 nm, Average / Survival / absorbance at 570 nm (single well, S/N 1-3): parallel tests I-III; for absorbance at 570 nm (single well, S/N 1-3): MTT
Protocol: (§1) The abietane type diterpene compound Leucosceptrum A prepared in Embodiment 2 is tested for its anti-tumor ability, with a process as follows: in vitro tumor cell proliferation inhibition assay: exponential phase tumor cells are taken and the cell suspension concentration is adjusted (50,000-100,000 cells/mL), then the cell suspension is inoculated in 96-well plate with 100 microlitres (u L) per well (M L/well), followed by drug administration (100 μL/well) 24 h after inoculation; a blank control group, a cell control group and 6 drug groups with concentrations (3.12, 6.25, 12.5, 25, 50, 100 micromoles per litre (u mol/L)) are set up respectively, and the drug in the cell control group is cisplatin; after continuous cultivation for 72 […]

[2] = tested on: human lung cancer cell A549; assay: in vitro tumor cell proliferation inhibition assay (MTT), A549; type: cell-based; conditions: for absorbance at 570 nm, Average: average of 3 wells; for absorbance at 570 nm, Average / Survival / absorbance at 570 nm (single well, S/N 1-3): parallel tests I-III; for absorbance at 570 nm (single well, S/N 1-3): MTT
Protocol: as §1

mouse sarcoma cells = conditions: MTT assay, reported in CN101633660A; cited from earlier work
mouse liver cancer cells = conditions: MTT assay, reported in CN101633660A; cited from earlier work
[3] = HL-60, 72 h, mean ± spread of parallel tests, unit inferred, read-out: IC50 obtained according to the above data (three parallel tests)
[4] = HL-60, 72 h, one value per parallel test I, II, III, unit not given (concentrations in μmol/L), read-out: IC50 according to Graphpad Prism 6.0 (single parallel test)
[5] = A549, 72 h, mean ± spread of parallel tests, unit inferred, read-out: IC50 according to the above data (three parallel tests)
[6] = A549, 72 h, one value per parallel test I, II, III, unit not given (concentrations in μmol/L), read-out: IC50 according to Graphpad Prism 6.0 (single parallel test)

Compound	absorbance at 570 nm, Average ([1]; HL-60, 3.12 μmol/L, 72 h)	Survival ([1]; HL-60, 3.12 μmol/L, 72 h)	absorbance at 570 nm, Average ([1]; HL-60, 6.25 μmol/L, 72 h)	Survival ([1]; HL-60, 6.25 μmol/L, 72 h)	absorbance at 570 nm, Average ([1]; HL-60, 12.5 μmol/L, 72 h)	Survival ([1]; HL-60, 12.5 μmol/L, 72 h)	Survival ([1]; HL-60, 25 μmol/L, 72 h)	absorbance at 570 nm, Average ([1]; HL-60, 50 μmol/L, 72 h)	Survival ([1]; HL-60, 50 μmol/L, 72 h)	absorbance at 570 nm, Average ([1]; HL-60, 100 μmol/L, 72 h)	Survival ([1]; HL-60, 100 μmol/L, 72 h)	IC50 [1, 3]	IC50 [1, 4]	absorbance at 570 nm, Average ([2]; A549, 3.12 μmol/L, 72 h)	Survival ([2]; A549, 3.12 μmol/L, 72 h)	absorbance at 570 nm, Average ([2]; A549, 6.25 μmol/L, 72 h)	Survival ([2]; A549, 6.25 μmol/L, 72 h)	absorbance at 570 nm, Average ([2]; A549, 12.5 μmol/L, 72 h)	Survival ([2]; A549, 12.5 μmol/L, 72 h)	Survival ([2]; A549, 25 μmol/L, 72 h)	other results
N.N.[Cl][Pt][Cl] [Cisplatin, cisplatin, reference compound]	0.6123 and 0.433 and 0.4877	96.57% and 87.56% and 92.66%	0.416 and 0.3023 and 0.4303	65.51% and 61.20% and 81.78%	0.312 and 0.2347 and 0.231	49.05% and 47.55% and 43.96%	43.57% and 22.80% and 31.06%	0.11 and 0.076 and 0.0597	17.09% and 15.53% and 11.45%	0.0213 and 0.0253 and 0.017	3.06% and 5.31% and 3.35%	12.7 ± 1.87 µM	14.4 µM and 10.7 µM and 13.2 µM	0.666 and 0.6207 and 0.678	97.75% and 98.46% and 96.86%	0.442 and 0.4673 and 0.4623	64.82% and 74.09% and 66.03%	0.2543 and 0.2593 and 0.265	37.24% and 41.02% and 37.88%	35.18% and 37.36% and 35.35%	absorbance at 570 nm (single well, S/N 1-3) ([1]; HL-60, 12.5 μmol/L, 72 h): 0.346 and 0.244 and 0.185 and 0.299 and 0.22 and 0.197 and 0.201 and 0.295; absorbance at 570 nm, Average ([2]; A549, 50 μmol/L, 72 h): 0.2027 and 0.2047 and 0.2257; Survival ([2]; A549, 50 μmol/L, 72 h): 29.64% and 32.33% and 32.21%; absorbance at 570 nm, Average ([2]; A549, 100 μmol/L, 72 h): 0.1913 and 0.189 and 0.2023; Survival ([2]; A549, 100 μmol/L, 72 h): 27.98% and 29.84% and 28.87%; IC50 [2, 5]: 16 ± 1.69 µM; IC50 [2, 6]: 14.6 µM and 17.9 µM and 15.4 µM
C=C(C)c1cc(O)c2c(c1O)C(=O)CC1C(C)(C)CCCC21C (stereo not drawn) [Leucosceptrum A, 11,14-dihydroxy-8,11,13,15-abietatetraen-7-one]	0.4477 and 0.4213 and 0.3807	82.21% and 78.96% and 66.67%	0.3683 and 0.3987 and 0.364	67.61% and 74.70% and 63.73%	0.221 and 0.1817 and 0.281	40.49% and 33.94% and 49.09%	16.13% and 10.64% and 11.79%	0.052 and 0.0433 and 0.048	9.39% and 7.95% and 8.00%	0.0303 and 0.032 and 0.039	5.40% and 5.82% and 6.41%	9.06 ± 0.59 µM	9.58 µM and 9.19 µM and 8.42 µM	0.815 and 0.7807 and 0.813	98.11% and 95.42% and 95.31%	0.7823 and 0.7553 and 0.7943	94.17% and 92.31% and 93.11%	0.6333 and 0.6687 and 0.59	76.22% and 81.68% and 69.13%	21.90% and 23.22% and 22.81%	absorbance at 570 nm, Average ([1]; HL-60, 25 μmol/L, 72 h): 0.0887 and 0.0577 and 0.069; absorbance at 570 nm (single well, S/N 1-3) ([1]; HL-60, 50 μmol/L, 72 h): 0.049 and 0.054 and 0.053 and 0.048 and 0.045 and 0.037 and 0.038; IC50 ([1]; HL-60 cells, 72 h, read-out: 72-hour IC50): 9.06 ± 0.59 µM; absorbance at 570 nm (single well, S/N 1-3) ([2]; A549, 6.25 μmol/L, 72 h): 0.828 and 0.791 and 0.728 and 0.711 and 0.786 and 0.769 and 0.822 and 0.77; absorbance at 570 nm, Average ([2]; A549, 25 μmol/L, 72 h): 0.1827 and 0.192 and 0.1953; absorbance at 570 nm (single well, S/N 1-3) ([2]; A549, 50 μmol/L, 72 h): 0.085 and 0.074 and 0.077 and 0.059 and 0.071 and 0.079 and 0.088; absorbance at 570 nm, Average ([2]; A549, 50 μmol/L, 72 h): 0.0813 and 0.07 and 0.0793; Survival ([2]; A549, 50 μmol/L, 72 h): 9.68% and 8.76% and 9.19%; absorbance at 570 nm (single well, S/N 1-3) ([2]; A549, 100 μmol/L, 72 h): 0.078 and 0.067 and 0.085 and 0.073 and 0.066 and 0.058; absorbance at 570 nm, Average ([2]; A549, 100 μmol/L, 72 h): 0.0767 and 0.0657 and 0.069; Survival ([2]; A549, 100 μmol/L, 72 h): 9.12% and 7.73% and 7.98%; IC50 [2, 5]: 17.5 ± 0.88 µM; IC50 [2, 6]: 17.6 µM and 18.4 µM and 16.6 µM; IC50 ([2]; A-549 cells, 72 h, read-out: 72-hour IC50): 17.5 ± 0.88 µM
lushanrubescensin D	–	–	–	–	–	–	–	–	–	–	–	–	–	–	–	–	–	–	–	–	inhibitory effect on mouse sarcoma cells (mouse sarcoma cells): significant inhibitory effect; inhibitory effect on mouse liver cancer cells (mouse liver cancer cells): significant inhibitory effect
